pEC50: −log10 of the molar value.
Biological target: T1, GK (glucokinase, residues 12-465) (Homo sapiens, UniProt P35557)
T1 construct: I.D. No. 1 corresponds to residues 12-465 of glucokinase; made in house; host or cells: DH10b-T1r E. coli
T1 sequence (P35557 with tags, fused parts or gaps isoform P35557-2): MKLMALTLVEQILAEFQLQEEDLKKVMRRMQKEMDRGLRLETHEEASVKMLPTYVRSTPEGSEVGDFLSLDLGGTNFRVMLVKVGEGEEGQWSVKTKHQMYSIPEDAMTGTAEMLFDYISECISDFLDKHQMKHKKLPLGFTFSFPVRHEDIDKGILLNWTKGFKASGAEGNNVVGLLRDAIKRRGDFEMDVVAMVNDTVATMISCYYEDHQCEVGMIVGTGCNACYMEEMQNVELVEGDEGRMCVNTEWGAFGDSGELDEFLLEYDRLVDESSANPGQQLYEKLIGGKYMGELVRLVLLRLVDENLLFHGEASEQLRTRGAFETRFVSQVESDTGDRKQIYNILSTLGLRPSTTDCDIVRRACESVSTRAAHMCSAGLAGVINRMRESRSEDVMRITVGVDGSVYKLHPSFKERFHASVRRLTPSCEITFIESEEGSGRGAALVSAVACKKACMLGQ
Assay: enzymatic glucokinase activity assay (ATP consumption, KinaseGlo luminescence)
Format: biochemical
Conditions: 5 μM ATP, 5 mM Glucose, reported as bins; for pEC50: Kact = concentration that displays 50% of the maximal increase in GK activity, 60 min, room temperature, read-out: pKact; for Emax: calculated maximal gain in GK enzyme activity at a saturating concentration of the compound, read-out: % ACTmax
Summary of the method: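 E. coli-expressed recombinant GK purified by two anion-exchange steps. Reaction in 25 mM Hepes pH 7.2, 10 mM MgCl2, 1 mM DTT, 5 μM ATP, 5 mM glucose, 2% DMSO, 60 min at room temperature. ATP consumption quantified by KinaseGlo luminescence; pKact and % ACTmax derived by non-linear curve fitting.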

Compound	pEC50	Emax
CS(=O)(=O)n1ccc(NC(=O)C(CC2CCOCC2)n2ncc3c(S(=O)(=O)C4CC4)cccc32)n1 (centres unmarked) [Compound 146, 2-(4-(cyclopropylsulfonyl)-1H-indazol-1-yl)-N-(1-(methylsulfonyl)-1H-pyrazol-3-yl)-3-(tetrahydro-2H-pyran-4-yl)propanamide]	4.90 to 5.40	≤ 90%
O=C(Nc1cccc(F)n1)C(CC1CCOCC1)n1ncc2c(S(=O)(=O)C3CC3)cccc21 (centres unmarked) [Compound 147, 2-(4-(cyclopropylsulfonyl)-1H-indazol-1-yl)-N-(6-fluoropyridin-2-yl)-3-(tetrahydro-2H-pyran-4-yl)propanamide]	5.50 to 5.80	≥ 111%
O=C(Nc1ncc(F)s1)C(CC1CCOCC1)n1cc2c(S(=O)(=O)C3CC3)c(F)ccc2n1 (centres unmarked) [Compound 148, 2-(4-(cyclopropylsulfonyl)-5-fluoro-2H-indazol-2-yl)-N-(5-fluorothiazol-2-yl)-3-(tetrahydro-2H-pyran-4-yl)propanamide]	4.90 to 5.40	≤ 90%
O=C(Nc1ncc(F)s1)C(CC1CCOCC1)n1ncc2c(S(=O)(=O)C3CC3)c(F)ccc21 (centres unmarked) [Compound 149, 2-(4-(cyclopropylsulfonyl)-5-fluoro-1H-indazol-1-yl)-N-(5-fluorothiazol-2-yl)-3-(tetrahydro-2H-pyran-4-yl)propanamide]	≥ 6.50	≥ 111%
O=C(Nc1ncc(F)s1)C(CC1CCOCC1)n1ncc2c(S(=O)(=O)C3CC3)c(Br)ccc21 (centres unmarked) [Compound 150, 2-(5-bromo-4-(cyclopropylsulfonyl)-1H-indazol-1-yl)-N-(5-fluorothiazol-2-yl)-3-(tetrahydro-2H-pyran-4-yl)propanamide]	5.90 to 6.40	≥ 111%
Cn1ccc(NC(=O)C(CC2CCOCC2)n2ncc3c(S(=O)(=O)C4CC4)cncc32)n1 (centres unmarked) [Compound 151, 2-(4-(cyclopropylsulfonyl)-1H-pyrazolo[3,4-c]pyridin-1-yl)-N-(1-methyl-1H-pyrazol-3-yl)-3-(tetrahydro-2H-pyran-4-yl)propanamide]	5.50 to 5.80	90 to 100%
Cn1ccc(NC(=O)C(CC2CCOCC2)n2ncc3c(S(=O)(=O)C4CC4)c(F)ccc32)n1 (centres unmarked) [Compound 152, 2-(4-(cyclopropylsulfonyl)-5-fluoro-1H-indazol-1-yl)-N-(1-methyl-1H-pyrazol-3-yl)-3-(tetrahydro-2H-pyran-4-yl)propanamide]	≥ 6.50	106 to 110%
Cn1ccc(NC(=O)C(CC2CCOCC2)n2cc3c(S(=O)(=O)C4CC4)c(F)ccc3n2)n1 (centres unmarked) [Compound 153, 2-(4-(cyclopropylsulfonyl)-5-fluoro-2H-indazol-2-yl)-N-(1-methyl-1H-pyrazol-3-yl)-3-(tetrahydro-2H-pyran-4-yl)propanamide]	≤ 4.80	106 to 110%
O=C(Nc1cnccn1)C(CC1CCOCC1)n1ncc2c(S(=O)(=O)C3CC3)c(F)ccc21 (centres unmarked) [Compound 154, 2-(4-(cyclopropylsulfonyl)-5-fluoro-1H-indazol-1-yl)-N-(pyrazin-2-yl)-3-(tetrahydro-2H-pyran-4-yl)propanamide]	≥ 6.50	106 to 110%
CCn1ccc(NC(=O)C(CC2CCOCC2)n2ncc3c(S(=O)(=O)C4CC4)c(F)ccc32)n1 (centres unmarked) [Compound 155, 2-(4-(cyclopropylsulfonyl)-5-fluoro-1H-indazol-1-yl)-N-(1-ethyl-1H-pyrazol-3-yl)-3-(tetrahydro-2H-pyran-4-yl)propanamide]	≥ 6.50	106 to 110%
O=C(Nc1cnccn1)C(CC1CCOCC1)n1cc2c(S(=O)(=O)C3CC3)c(F)ccc2n1 (centres unmarked) [Compound 156, 2-(4-(cyclopropylsulfonyl)-5-fluoro-2H-indazol-2-yl)-N-(pyrazin-2-yl)-3-(tetrahydro-2H-pyran-4-yl)proanamide]	≥ 6.50	101 to 105%
Cc1ccc2c(cnn2C(CC2CCOCC2)C(=O)Nc2cnccn2)c1S(=O)(=O)C1CC1 (centres unmarked) [Compound 157, 2-(4-(cyclopropylsulfonyl)-5-methyl-1H-indazol-1-yl)-N-(pyrazin-2-yl)-3-(tetrahydro-2H-pyran-4-yl)propanamide]	5.90 to 6.40	≥ 111%
Cc1ccc2c(cnn2C(CC2CCOCC2)C(=O)Nc2ccn(C)n2)c1S(=O)(=O)C1CC1 (centres unmarked) [Compound 158, 2-(4-(cyclopropylsulfonyl)-5-methyl-1H-indazol-1-yl)-N-(1-methyl-1H-pyrazol-3-yl)-3-(tetrahydro-2H-pyran-4-yl)propanamide]	5.90 to 6.40	≥ 111%
Cn1ccc(NC(=O)[C@H](CC2CCOCC2)n2ncc3c(S(=O)(=O)C4CC4)cncc32)n1 [Compound 159, (S)-2-(4-(cyclopropylsulfonyl)-1H-pyrazolo[3,4-c]pyridin-1-yl)-N-(1-methyl-1H-pyrazol-3-yl)-3-(tetrahydro-2H-pyran-4-yl)propanamide]	5.50 to 5.80	101 to 105%
Cn1ccc(NC(=O)[C@@H](CC2CCOCC2)n2ncc3c(S(=O)(=O)C4CC4)cncc32)n1 [Compound 160, (R)-2-(4-(cyclopropylsulfonyl)-1H-pyrazolo[3,4-c]pyridin-1-yl)-N-(1-methyl-1H-pyrazol-3-yl)-3-(tetrahydro-2H-pyran-4-yl)propanamide]	4.90 to 5.40	90 to 100%
O=C(Nc1cnccn1)[C@@H](CC1CCOCC1)n1ncc2c(S(=O)(=O)C3CC3)ccnc21 [Compound 161, (R)-2-(4-(cyclopropylsulfonyl)-1H-pyrazolo[3,4-b]pyridin-1-yl)-N-(pyrazin-2-yl)-3-(tetrahydro-2H-pyran-4-yl)propanamide]	≤ 4.80	≤ 90%
O=C(Nc1cnccn1)[C@H](CC1CCOCC1)n1ncc2c(S(=O)(=O)C3CC3)ccnc21 [Compound 162, (S)-2-(4-(cyclopropylsulfonyl)-1H-pyrazolo[3,4-b]pyridin-1-yl)-N-(pyrazin-2-yl)-3-(tetrahydro-2H-pyran-4-yl)propanamide]	5.50 to 5.80	106 to 110%
Nc1cc(S(=O)(=O)C2CC2)c2cnn([C@H](CC3CCOCC3)C(=O)Nc3cnccn3)c2n1 [Compound 163, (R)-2-(6-amino-4-(cyclopropylsulfonyl)-1H-pyrazolo[3,4-b]pyridin-1-yl)-N-(pyrazin-2-yl)-3-(tetrahydro-2H-pyran-4-yl)propanamide]	5.50 to 5.80	≤ 90%
Nc1cc(S(=O)(=O)C2CC2)c2cnn([C@@H](CC3CCOCC3)C(=O)Nc3cnccn3)c2n1 [Compound 164, (S)-2-(6-amino-4-(cyclopropylsulfonyl)-1H-pyrazolo[3,4-b]pyridin-1-yl)-N-(pyrazin-2-yl)-3-(tetrahydro-2H-pyran-4-yl)propanamide]	5.90 to 6.40	106 to 110%
Cn1ccc(NC(=O)[C@H](CC2CCOCC2)n2ncc3c(S(=O)(=O)C4CC4)c(F)ccc32)n1 [Compound 165, (S)-2-(4-(cyclopropylsulfonyl)-5-fluoro-1H-indazol-1-yl)-N-(1-methyl-1H-pyrazol-3-yl)-3-(tetrahydro-2H-pyran-4-yl)propanamide]	≥ 6.50	90 to 100%
Cn1ccc(NC(=O)[C@@H](CC2CCOCC2)n2ncc3c(S(=O)(=O)C4CC4)c(F)ccc32)n1 [Compound 166, (R)-2-(4-(cyclopropylsulfonyl)-5-fluoro-1H-indazol-1-yl)-N-(1-methyl-1H-pyrazol-3-yl)-3-(tetrahydro-2H-pyran-4-yl)propanamide]	4.90 to 5.40	90 to 100%
Cn1ccc(NC(=O)C(CC2CCOCC2)n2cc3c(S(=O)(=O)C4CC4)cc(Cl)cc3n2)n1 (centres unmarked) [Compound 167, 2-(6-chloro-4-(cyclopropylsulfonyl)-2H-indazol-2-yl)-N-(1-methyl-1H-pyrazol-3-yl)-3-(tetrahydro-2H-pyran-4-yl)propanamide]	4.90 to 5.40	≤ 90%
O=C(Nc1cnccn1)C(CC1CCOCC1)n1cc2c(S(=O)(=O)C3CC3)cc(Cl)cc2n1 (centres unmarked) [Compound 168, 2-(6-chloro-4-(cyclopropylsulfonyl)-2H-indazol-2-yl)-N-(pyrazin-2-yl)-3-(tetrahydro-2H-pyran-4-yl)propanamide]	≤ 4.80	≤ 90%
O=C(Nc1cnccn1)C(CC1CCOCC1)n1cc2c(S(=O)(=O)C3CC3)cncc2n1 (centres unmarked) [Compound 169, 2-(4-(cyclopropylsulfonyl)-2H-pyrazolo[3,4-c]pyridin-2-yl)-N-(pyrazin-2-yl)-3-(tetrahydro-2H-pyran-4-yl)propanamide]	≤ 4.80	≤ 90%
Cn1ccc(NC(=O)C(CC2CCOCC2)n2ncc3c(S(=O)(=O)C4CC4)cc(N)nc32)n1 (centres unmarked) [Compound 170, 2-(6-amino-4-(cyclopropylsulfonyl)-1H-pyrazolo[3,4-b]pyridin-1-yl)-N-(1-methyl-1H-pyrazol-3-yl)-3-(tetrahydro-2H-pyran-4-yl)propanamide]	≤ 4.80	≤ 90%
